# Test results reported in patent US20250179078A1, “INHIBITORS OF NLRP3” (PTC THERAPEUTICS, INC., priority 2022, published 2025).
# Target: T1, NLRP3 (Homo sapiens, UniProt Q96P20)
# T1 construct: host or cells: THP-1 cells differentiated with PMA
# Assay: IL-1β Secretion Assay (NLRP3-dependent IL1β secretion in THP1 cells)
# Assay type: cell-based
# Settings: PMA-differentiated THP-1 cells; compounds incubated 20 h; 2.5 μM Nigericin 3 h; HTRF IL-1β readout; read-out: IC50 IL-1β Inhibition
# Procedure, shortened: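 THP-1 cells differentiated with 100 ng/mL PMA for 24 h, then given compound (7-point 3-fold series, 1:200 from DMSO) for 20 h in RPMI+5% FBS. NLRP3 activated with 2.5 μM nigericin for 3 h; secreted IL-1β measured by HTRF; IC50 from logistic fit of % inhibition.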
# T1 sequence (Q96P20 whole entry): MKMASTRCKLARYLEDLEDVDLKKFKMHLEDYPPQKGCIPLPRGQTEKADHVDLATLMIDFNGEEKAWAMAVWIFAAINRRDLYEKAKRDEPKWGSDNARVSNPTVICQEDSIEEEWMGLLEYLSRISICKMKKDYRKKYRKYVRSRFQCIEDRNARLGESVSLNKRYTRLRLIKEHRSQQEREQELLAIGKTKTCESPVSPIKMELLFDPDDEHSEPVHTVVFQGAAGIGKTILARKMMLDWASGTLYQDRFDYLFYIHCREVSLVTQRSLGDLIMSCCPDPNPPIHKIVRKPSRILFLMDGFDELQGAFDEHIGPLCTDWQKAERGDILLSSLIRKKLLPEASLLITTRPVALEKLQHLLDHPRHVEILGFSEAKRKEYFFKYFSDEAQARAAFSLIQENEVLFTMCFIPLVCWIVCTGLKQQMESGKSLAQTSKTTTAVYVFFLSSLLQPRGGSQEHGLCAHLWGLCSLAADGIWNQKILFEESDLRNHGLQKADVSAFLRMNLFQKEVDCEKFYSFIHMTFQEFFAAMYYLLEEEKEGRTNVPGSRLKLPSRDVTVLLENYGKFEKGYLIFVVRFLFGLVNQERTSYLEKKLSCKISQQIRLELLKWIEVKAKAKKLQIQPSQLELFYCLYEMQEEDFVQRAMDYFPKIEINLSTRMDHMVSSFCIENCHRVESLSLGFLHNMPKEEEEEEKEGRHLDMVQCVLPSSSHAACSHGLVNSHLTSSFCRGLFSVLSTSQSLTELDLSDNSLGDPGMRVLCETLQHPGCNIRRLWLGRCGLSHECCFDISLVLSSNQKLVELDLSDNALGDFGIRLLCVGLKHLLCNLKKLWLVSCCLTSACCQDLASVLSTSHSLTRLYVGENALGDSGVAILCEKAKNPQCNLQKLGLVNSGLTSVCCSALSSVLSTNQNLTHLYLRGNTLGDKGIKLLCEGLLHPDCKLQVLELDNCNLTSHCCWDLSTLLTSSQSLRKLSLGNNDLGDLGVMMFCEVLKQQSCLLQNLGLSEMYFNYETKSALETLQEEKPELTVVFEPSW
row,SMILES,IC50 [nM]
1,"COc1ccc(-c2nnc(NC3CCNC3=O)n3nc(C)cc23)c(CC(F)(F)F)c1 (centres unmarked) [Compound 386, 3-({4-[4-methoxy-2-(2,2,2-trifluoroethyl)phenyl]-2-methylpyrazolo[1,5-d][1,2,4]triazin-7-yl}amino)pyrrolidin-2-one]",10 to 100
2,"COc1ccc(-c2nnc(N[C@H]3C[C@@](C)(O)C3)n3nc(C)cc23)c(CC(F)(F)F)c1 [Compound 387, (1s,3s)-3-({4-[4-methoxy-2-(2,2,2-trifluoroethyl)phenyl]-2-methylpyrazolo[1,5-d][1,2,4]triazin-7-yl}amino)-1-methylcyclobutan-1-ol]",1 to 10
3,"Cc1cc2c(-c3ccc(C(F)(F)F)cc3CC(F)(F)F)nnc(N[C@H]3C[C@@](C)(O)C3)n2n1 [Compound 388, (1s,3s)-1-methyl-3-({2-methyl-4-[2-(2,2,2-trifluoroethyl)-4-(trifluoromethyl)phenyl]pyrazolo[1,5-d][1,2,4]triazin-7-yl}amino)cyclobutan-1-ol]",1 to 10
4,"Cc1cc2c(-c3ccc(C(F)(F)F)cc3CC(F)(F)F)nnc(N[C@@H]3CCCC[C@H]3O)n2n1 [Compound 389, (1R,2R)-2-({2-methyl-4-[2-(2,2,2-trifluoroethyl)-4-(trifluoromethyl)phenyl]pyrazolo[1,5-d][1,2,4]triazin-7-yl}amino)cyclohexan-1-ol]",1 to 10
5,"Cc1ccc(-c2nnc(N[C@H]3C[C@@](C)(O)C3)n3nc(C)cc23)c(CC(F)(F)F)c1 [Compound 390, (1s,3s)-1-methyl-3-({2-methyl-4-[4-methyl-2-(2,2,2-trifluoroethyl)phenyl]pyrazolo[1,5-d][1,2,4]triazin-7-yl}amino)cyclobutan-1-ol]",1 to 10
6,"COc1ccc(-c2nnc(N[C@H]3C[C@@](C)(O)C3)n3nc(C)cc23)c(OC(F)(F)F)c1 [Compound 391, (1s,3s)-3-({4-[4-methoxy-2-(trifluoromethoxy)phenyl]-2-methylpyrazolo[1,5-d][1,2,4]triazin-7-yl}amino)-1-methylcyclobutan-1-ol]",10 to 100
7,"COc1ccc(-c2nnc(N[C@@H]3CCCC[C@H]3O)n3nc(C)cc23)c(OC(F)(F)F)c1 [Compound 392, (1R,2R)-2-({4-[4-methoxy-2-(trifluoromethoxy)phenyl]-2-methylpyrazolo[1,5-d][1,2,4]triazin-7-yl}amino)cyclohexan-1-ol]",10 to 100
8,"O=C1NCCC1Nc1nnc(-c2ccc(C(F)(F)F)cc2OC(F)(F)F)c2ccnn12 (centres unmarked) [Compound 393, 3-({4-[2-(trifluoromethoxy)-4-(trifluoromethyl)phenyl]pyrazolo[1,5-d][1,2,4]triazin-7-yl}amino)pyrrolidin-2-one]",10 to 100
9,"O[C@@H]1CCCC[C@H]1Nc1nnc(-c2ccc(C(F)(F)F)cc2C(F)(F)F)c2ccnn12 [Compound 394, (1R,2R)-2-({4-[2,4-bis(trifluoromethyl)phenyl]pyrazolo[1,5-d][1,2,4]triazin-7-yl}amino)cyclohexan-1-ol]",1 to 10
10,"CC(Nc1nnc(-c2ccc(C(F)(F)F)cc2C(F)(F)F)c2ccnn12)c1cccc(O)c1 (centres unmarked) [Compound 395, 3-[1-({4-[2,4-bis(trifluoromethyl)phenyl]pyrazolo[1,5-d][1,2,4]triazin-7-yl}amino)ethyl]phenol]",1 to 10
11,"O=C1NCCC1Nc1nnc(-c2ccc(C(F)(F)F)cc2C(F)(F)F)c2ccnn12 (centres unmarked) [Compound 396, 3-({4-[2,4-bis(trifluoromethyl)phenyl]pyrazolo[1,5-d][1,2,4]triazin-7-yl}amino)pyrrolidin-2-one]",10 to 100
12,"C[C@]1(O)C[C@@H](Nc2nnc(-c3ccc(C(F)(F)F)cc3OC(F)(F)F)c3ccnn23)C1 [Compound 397, (1s,3s)-1-methyl-3-({4-[2-(trifluoromethoxy)-4-(trifluoromethyl)phenyl]pyrazolo[1,5-d][1,2,4]triazin-7-yl}amino)cyclobutan-1-ol]",1 to 10
13,"O[C@@H]1CCCC[C@H]1Nc1nnc(-c2ccc(C(F)(F)F)cc2OC(F)(F)F)c2ccnn12 [Compound 398, (1R,2R)-2-({4-[2-(trifluoromethoxy)-4-(trifluoromethyl)phenyl]pyrazolo[1,5-d][1,2,4]triazin-7-yl}amino)cyclohexan-1-ol]",1 to 10
14,"C[C@]1(O)C[C@@H](Nc2nnc(-c3ccc(C(F)(F)F)cc3C3CC3)c3cncn23)C1 [Compound 399, (1s,3s)-3-({1-[2-cyclopropyl-4-(trifluoromethyl)phenyl]imidazo[1,5-d][1,2,4]triazin-4-yl}amino)-1-methylcyclobutan-1-ol]",1 to 10
15,"O[C@H]1CCOC[C@@H]1Nc1nnc(-c2ccc(C(F)(F)F)cc2CC(F)(F)F)c2cncn12 [Compound 400, (3S,4S)-3-({1-[2-(2,2,2-trifluoroethyl)-4-(trifluoromethyl)phenyl]imidazo[1,5-d][1,2,4]triazin-4-yl}amino)oxan-4-ol]",10 to 100
16,"O[C@H]1CCCC[C@H]1Nc1nnc(-c2ccc(C(F)(F)F)cc2CC(F)(F)F)c2cncn12 [Compound 401, (1S,2R)-2-({1-[2-(2,2,2-trifluoroethyl)-4-(trifluoromethyl)phenyl]imidazo[1,5-d][1,2,4]triazin-4-yl}amino)cyclohexan-1-ol]",10 to 100
17,"Cc1ccc(-c2nnc(N[C@@H]3CCOC[C@H]3O)n3cncc23)c(CC(F)(F)F)c1 [Compound 402, (3S,4R)-4-({1-[4-methyl-2-(2,2,2-trifluoroethyl)phenyl]imidazo[1,5-d][1,2,4]triazin-4-yl}amino)oxan-3-ol]",10 to 100
